For data set [1], the target named is T1, human serum albumin (Homo sapiens, UniProt P02768).
T1 construct: were determined using human plasma in a dialysis plate-based assay; from tissue; host or cells: human plasma
Description: Serum albumin binding, dialysis of human plasma. Format: in vitro ADME.

Data set [2] in a line: pH solubility. The format is physicochemical. The following applies: 24 hours; for Solubility: 37° C.
Data set [3] can be described thus: Pharmacokinetic study free base v. tartrate salt, oral gavage. Format: in vivo. The conditions noted are these: Sprague-Dawley, rat, plasma, fasted male rats, PO in 20% solutol.
Description: Pharmacokinetic parameters were calculated using a noncompartmental approach with Phoenix WinNonlin 6.3 (Pharsight, Mountain View Calif.).

SMILES strings stand for the structures. Values after ≈ are worked out from the molar mass of the structure shown.

T1 sequence (P02768 25-609): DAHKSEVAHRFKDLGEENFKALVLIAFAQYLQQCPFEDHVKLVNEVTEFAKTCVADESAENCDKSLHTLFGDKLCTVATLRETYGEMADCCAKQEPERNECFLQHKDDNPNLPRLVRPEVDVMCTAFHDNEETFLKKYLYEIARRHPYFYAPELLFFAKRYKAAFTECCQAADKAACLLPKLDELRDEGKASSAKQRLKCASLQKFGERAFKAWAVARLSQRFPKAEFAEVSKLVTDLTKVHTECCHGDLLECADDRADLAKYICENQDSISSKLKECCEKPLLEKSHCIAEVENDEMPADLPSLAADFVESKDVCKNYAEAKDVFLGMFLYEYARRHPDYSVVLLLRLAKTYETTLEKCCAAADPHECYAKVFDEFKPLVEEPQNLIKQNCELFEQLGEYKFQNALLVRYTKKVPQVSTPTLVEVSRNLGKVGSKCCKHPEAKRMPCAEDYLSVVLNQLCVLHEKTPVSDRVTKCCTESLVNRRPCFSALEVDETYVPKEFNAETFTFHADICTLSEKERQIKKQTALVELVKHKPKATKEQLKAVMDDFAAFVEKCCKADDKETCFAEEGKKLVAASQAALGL

The fraction unbound is the share of the substance not bound to proteins or other matrix. Usually Solubility stands for the dissolved amount per volume that the medium holds. A low value points to a poorly soluble substance. By Tmax is commonly meant the time from dosing to the highest level. As usually defined, the bioavailability is the share of a dose that reaches the circulation, judged against a reference dose that is usually intravenous. A word on the Cmax: it is the maximum level reached in the sampled fluid or tissue. Consider `CN1CCN(Cc2ccc(Nc3ncc(Cl)c(Nc4ccccc4S(=O)(=O)N(C)C)n3)cc2)CC1` [compound of structure (I), 2-((5-chloro-2-((4-((4-methylpiperazin-1-yl)methyl)phenyl)amino)pyrimidin-4-yl)amino)-N,N-dimethylbenzenesulfonamide], for which the recovery in data set [1] (human plasma, read-out: recovery of protein bound drug) was 80.3%. Moreover, in data set [1] (plasma), the fraction unbound turned out to be 0.07. The “FC (form change) of residual solid” value in data set [2] (pH 2.0) is reported as “Yes”; in data set [2] (pH 6.0, listed as Free Base), “No”; in data set [2] (pH 8.0, listed as Free Base), “No”; in data set [2] (pH 10.0, listed as Free Base), “No”. Besides, the Solubility in data set [2] (pH 2.0 buffer, listed as Free Base) is 2600 µg/mL (≈ 5040 µM); in data set [2] (pH 4.0 buffer, listed as Free Base) it was 170 µg/mL (≈ 329 µM); in data set [2] (pH 6.0 buffer, listed as Free Base), 14 µg/mL (≈ 27.1 µM); in data set [2] (pH 8.0 buffer, listed as Free Base), 38 µg/mL (≈ 73.6 µM); in data set [2] (pH 10.0 buffer, listed as Free Base), 76 µg/mL (≈ 147 µM). The Tmax in data set [3] (nominal 20 mg/kg) worked out at 50 min. The bioavailability in data set [3] (nominal 20 mg/kg) was 26.9%. The maximum concentration (Cmax) in data set [3] (nominal 20 mg/kg (18.2 free base, 18.7 tartrate)) amounted to 116 ng/mL. Besides, in data set [3] (nominal 20 mg/kg, read-out: AUC0-24 hours), the AUC(0-t) is 458 ng·h/mL.

Source of the values: patent publication US11400091B2, “AXL kinase inhibitors and use of the same” (Sumitomo Pharma Oncology, Inc., priority 2018, dated 2022).
